{"source": "patent US20240335383A1", "about": "“NANOPARTICULATE FORMULATION” (NewImmune II, LLC, priority 2021, published 2024)", "key": {"[1]": {"parameters": "species or system human", "text": "The efficacy of the presently disclosed compositions and nanoparticles allows for the administration of relatively low doses."}, "IL-2 stimulated B cells": {"system": "IL-2 stimulated B cells", "details": "Glaum et al, 2009; cited from earlier work"}, "[2]": {"details": "mice, dermal exposure; cited from earlier work"}, "T effector memory cells": {"system": "T effector memory cells", "details": "Fiorenza et al, 2012; cited from earlier work"}, "[3]": {"details": "EMA toxicology review of Aldara; cited from earlier work"}, "[4]": {"details": "rats, single subcutaneous dose; cited from earlier work"}, "[5]": {"details": "rats, oral, repeated dose up to 6 months; cited from earlier work"}, "[6]": {"details": "Britton-Robinson buffer, FIG. 1"}, "[7]": {"system": "mesothelioma, renal cell carcinoma and 4T1 breast cancer", "details": "mouse models, cited from earlier work"}, "[8]": {"details": "injected subcutaneously into patients; cited from earlier work"}, "[9]": {"details": "imiquimod; cited from earlier work"}, "[10]": {"details": "pregnant female rabbits, intravenous, gestational Days 6-18; cited from earlier work"}, "[11]": {"details": "monkeys, oral, repeated dose up to 6 months; cited from earlier work"}, "[12]": {"details": "mice, rats, and monkeys; adverse effects limited to the central nervous system; cited from earlier work"}, "[13]": {"details": "30 mg subcutaneous dose, healthy human volunteers; cited from earlier work"}, "[14]": {"details": "rabbits, doses of 2000 and 5000 mg/kg under occlusion; cited from earlier work"}}, "note": "Like-named read-outs stand apart in the source and are kept apart here.", "data": [{"compound": "polyethylene glycol 4000 [PEG 4000]", "values": [{"measurement": "Safety Factor (excipient dose from approved drug vs excipient dose from NP)", "setting": "[1]", "value": "2-fold"}]}, {"compound": "CCOCc1nc2c(N)nc3ccccc3c2n1CC(C)(C)O", "note": "[resiquimod]", "values": [{"measurement": "IgM and IgG production by IL-2 stimulated B cells", "setting": "IL-2 stimulated B cells", "value": "synergistically enhance IgM and IgG production"}]}, {"compound": "CC(C)Cn1cnc2c(N)nc3ccccc3c21", "note": "[imiquimod, 1-(2-methylpropyl)imidazo[4,5-c]quinolin-4-amine]", "values": [{"measurement": "carcinogenicity: incidence of tumors or non-neoplastic lesions", "setting": "[2]", "value": "no increase in the incidence of tumors or non-neoplastic lesions"}, {"measurement": "cytotoxic activity of T effector memory cells", "setting": "T effector memory cells", "value": "enhances the cytotoxic activity"}, {"measurement": "effect on fertility", "setting": "[3]", "value": "did not affect fertility"}, {"measurement": "teratogenicity and genotoxicity", "setting": "[3]", "value": "neither teratogenic nor genotoxic"}, {"measurement": "subcutaneous lethal dose", "setting": "[4]", "value": 20, "unit": "mg/kg"}, {"measurement": "no observed adverse effect level (NOAEL)", "setting": "[5]", "value": 3, "unit": "mg/kg"}, {"measurement": "pH of maximum solubility in aqueous solution", "setting": "[6]", "value": "≤ 2"}, {"measurement": "aqueous solubility above pH 6", "setting": "[6]; above pH 6", "value": "sparingly soluble"}, {"measurement": "overt signs of toxicity (such as weight loss and ruffled fur)", "setting": "[7]; 50 μL injections of 50 μg/mL imiquimod", "value": "not associated with overt signs of toxicity"}, {"measurement": "increase in survival time at maximum inhibition of tumor growth", "setting": "[7]; intratumoral, 50 μL injections of 50 μg/mL imiquimod (p<0.05)", "value": "> 50", "unit": "%"}, {"measurement": "growth of tumor", "setting": "[7]; only locally (intratumoral) delivered", "value": "consistently and significantly retarded the growth of tumor"}, {"measurement": "systemic exposure", "setting": "[8]", "value": "minimal systemic exposure"}, {"measurement": "in vivo half-life", "setting": "[9]", "value": "approximately 3 hours"}, {"measurement": "dose with no treatment related effects on embryofetal toxicity or teratogenicity", "setting": "[10]", "value": 2, "unit": "mg/kg/day"}, {"measurement": "no observed adverse effect level (NOAEL)", "setting": "[11]", "value": 3, "unit": "mg/kg"}, {"measurement": "single dose toxicity", "setting": "[12]", "value": "high degree of safety"}, {"measurement": "tolerability of subcutaneous dose", "setting": "[13]", "value": "well tolerated"}, {"measurement": "dermal toxicity", "setting": "[14]", "value": "no deaths and no signs of toxicity other than mild transient erythema at the application site"}]}, {"compound": "2-hydroxypropyl-β-cyclodextrin [HP-β-CD]", "values": [{"measurement": "Safety Factor (excipient dose from approved drug vs excipient dose from NP)", "setting": "[1]", "value": "11-fold"}]}]}
